We go through 13 molecules from ChEMBL document CHEMBL4002621, “Novel 12N-substituted matrinanes as potential anti-coxsackievirus agents” (Bioorg Med Chem Lett, 2017).

pIC50: −log10 of the molar value. A value given as a limit tells only on which side of the number the result lay.

Tested on in one series: not listed separately
The series can be described thus: Cytotoxicity against African green monkey Vero cells assessed as growth inhibition after 48 hrs. In kind it is cell-based. As to conditions: chlorocebus sabaeus, read-out: TC50.
Take `CCCC[C@@H]1[C@H]2CCCN3CCC[C@@H](CN1S(=O)(=O)c1ccsc1C(=O)OC)[C@@H]23`: the CC50 at 48 h was greater than 200 µM.
On to `CCCC[C@@H]1[C@H]2CCCN3CCC[C@@H](CN1C(=O)CC(=O)OC)[C@@H]23`, for which the CC50 at 48 h is greater than 200 µM.
Same read-out and setting: the result for `CCCC[C@@H]1[C@H]2CCCN3CCC[C@@H](CN1C(=O)c1ccccc1OC(C)=O)[C@@H]23` reads 241 µM; that for `CCCC[C@@H]1[C@H]2CCCN3CCC[C@@H](CN1C(=O)c1c(C)noc1C)[C@@H]23`, greater than 556 µM; that for `CCCC[C@@H]1[C@H]2CCCN3CCC[C@@H](CN1S(=O)(=O)c1cccc(C(N)=O)c1)[C@@H]23`, 230 µM.
Take `CCCC[C@@H]1[C@H]2CCCN3CCC[C@@H](CN1C(=O)c1ccccc1O)[C@@H]23`: the CC50 at 48 h was determined as 324 µM.
The same measure, in the same setting: the figure for `CCCC[C@@H]1[C@H]2CCCN3CCC[C@@H](CN1Cc1ccccc1)[C@@H]23` is 96.2 µM; for `CCCC[C@@H]1[C@H]2CCCN3CCC[C@@H](CN1C(=O)N1CCN(S(C)(=O)=O)C1=O)[C@@H]23` it is greater than 469 µM; for `CCCC[C@@H]1[C@H]2CCCN3CCC[C@@H](CN1S(=O)(=O)CCN)[C@@H]23` it is 280 µM.
With `CCCC[C@@H]1[C@H]2CCCN3CCC[C@@H](CN1S(=O)(=O)c1cn(C)cn1)[C@@H]23`, the CC50 at 48 h was greater than 200 µM.
Turning to `CCCC[C@@H]1[C@H]2CCCN3CCC[C@@H](CN1S(=O)(=O)c1cccc(C#N)c1)[C@@H]23`, the CC50 at 48 h worked out at 183 µM.
Still for that read-out and setting: the figure for `CCCC[C@@H]1[C@H]2CCCN3CCC[C@@H](CN1S(=O)(=O)c1ccccc1C(N)=O)[C@@H]23` is 276 µM.
The same measure, in the same setting: the figure for `CCCC[C@@H]1[C@H]2CCCN3CCC[C@@H](CN1Cc1ccc(C(=O)OC)cc1)[C@@H]23` is 96.2 µM.

Another series relates to Coxsackievirus B3. The series can be described thus: Antiviral activity against Coxsackievirus B3 (strain Nancy) infected in African green monkey Vero cells assessed as reduction in viral-induced cytopathic effect by Reed and Muench analysis. Type of series: functional. As to conditions: Enterovirus B.
Regarding `CCCC[C@@H]1[C@H]2CCCN3CCC[C@@H](CN1S(=O)(=O)c1ccsc1C(=O)OC)[C@@H]23`, the pIC50 was 5.31.
With `CCCC[C@@H]1[C@H]2CCCN3CCC[C@@H](CN1C(=O)CC(=O)OC)[C@@H]23`, the pIC50 is 4.34.
Regarding `CCCC[C@@H]1[C@H]2CCCN3CCC[C@@H](CN1C(=O)c1ccccc1OC(C)=O)[C@@H]23`, the pIC50 is 4.85.
Regarding `CCCC[C@@H]1[C@H]2CCCN3CCC[C@@H](CN1C(=O)c1c(C)noc1C)[C@@H]23`, the pIC50 was 5.16.
Still for that read-out and setting: the result for `CCCC[C@@H]1[C@H]2CCCN3CCC[C@@H](CN1S(=O)(=O)c1cccc(C(N)=O)c1)[C@@H]23` reads 5.13.
Same read-out and setting: the result for `CCCC[C@@H]1[C@H]2CCCN3CCC[C@@H](CN1C(=O)c1ccccc1O)[C@@H]23` reads less than 4.21; that for `CCCC[C@@H]1[C@H]2CCCN3CCC[C@@H](CN1Cc1ccccc1)[C@@H]23`, less than 4.65; that for `CCCC[C@@H]1[C@H]2CCCN3CCC[C@@H](CN1C(=O)N1CCN(S(C)(=O)=O)C1=O)[C@@H]23`, 4.28.
As to `CCCC[C@@H]1[C@H]2CCCN3CCC[C@@H](CN1S(=O)(=O)CCN)[C@@H]23`, the negative logarithm of the IC50 (pIC50) was less than 4.19.
Take `CCCC[C@@H]1[C@H]2CCCN3CCC[C@@H](CN1S(=O)(=O)c1cn(C)cn1)[C@@H]23`: the pIC50 was less than 4.18.
As to `CCCC[C@@H]1[C@H]2CCCN3CCC[C@@H](CN1S(=O)(=O)c1cccc(C#N)c1)[C@@H]23`, the pIC50 was 5.90.
On the same count and under the same terms, the figure for `CCCC[C@@H]1[C@H]2CCCN3CCC[C@@H](CN1S(=O)(=O)c1ccccc1C(N)=O)[C@@H]23` is 4.63; for `CCCC[C@@H]1[C@H]2CCCN3CCC[C@@H](CN1Cc1ccc(C(=O)OC)cc1)[C@@H]23` it is 5.21.

Tested on in another series: not listed separately
In words: Selectivity index, ratio of TC50 for African green monkey Vero cells to IC50 for Coxsackievirus B3 (strain Nancy) infected in African green monkey Vero cells. Type of series: toxicity. As to conditions: read-out: Selectivity Index.
On to `CCCC[C@@H]1[C@H]2CCCN3CCC[C@@H](CN1S(=O)(=O)c1ccsc1C(=O)OC)[C@@H]23`, for which the selectivity ratio is greater than 40.5.
Take `CCCC[C@@H]1[C@H]2CCCN3CCC[C@@H](CN1C(=O)CC(=O)OC)[C@@H]23`: the selectivity ratio is greater than 4.33.
On the same count and under the same terms, the result for `CCCC[C@@H]1[C@H]2CCCN3CCC[C@@H](CN1C(=O)c1ccccc1OC(C)=O)[C@@H]23` reads 17.1; that for `CCCC[C@@H]1[C@H]2CCCN3CCC[C@@H](CN1C(=O)c1c(C)noc1C)[C@@H]23`, greater than 81.
As for `CCCC[C@@H]1[C@H]2CCCN3CCC[C@@H](CN1S(=O)(=O)c1cccc(C(N)=O)c1)[C@@H]23`, the selectivity ratio is 30.7.
Turning to `CCCC[C@@H]1[C@H]2CCCN3CCC[C@@H](CN1C(=O)N1CCN(S(C)(=O)=O)C1=O)[C@@H]23`, the selectivity ratio was greater than 9.
Turning to `CCCC[C@@H]1[C@H]2CCCN3CCC[C@@H](CN1S(=O)(=O)c1cccc(C#N)c1)[C@@H]23`, the selectivity ratio amounted to 146.
Take `CCCC[C@@H]1[C@H]2CCCN3CCC[C@@H](CN1S(=O)(=O)c1ccccc1C(N)=O)[C@@H]23`: the selectivity ratio was 11.8.
Turning to `CCCC[C@@H]1[C@H]2CCCN3CCC[C@@H](CN1Cc1ccc(C(=O)OC)cc1)[C@@H]23`, the selectivity ratio was determined as 15.6.
